Assay results taken from US20070219186A1, “Pyrazolo[1,5-A]pyrimidine derivatives and methods of use thereof” (priority 2006, published 2007).
Like-named read-outs stand apart in the source and are kept apart here.

Target: T1, human B-Raf (Homo sapiens, UniProt P15056)
T1 construct: Flag; GST; made in house; host or cells: Sf9 insect cells (B-Raf); E. coli (MEK1-GST)
Experiment: B-Raf Kinase to MEK1 ELISA
Assay type: biochemical
Conditions: for inhibition at 10 µM: read-out: % Inhib./10 uM
Outline: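 Read-out is a DELFIA europium signal from phospho-MEK1 (Ser217/221) antibody after capture of GST-MEK1 (50 nM final) on anti-GST plates. Phosphorylation comes from Sf9-expressed Flag/GST human B-Raf (~20 ng) with ATP/MgCl2, 60 min RT, pH 7.2 MOPS.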

[1] = median, cpd concentrations from 10 μM to 30 nM in half log dilutions, read-out: Median IC50

T1 sequence (P15056 whole entry): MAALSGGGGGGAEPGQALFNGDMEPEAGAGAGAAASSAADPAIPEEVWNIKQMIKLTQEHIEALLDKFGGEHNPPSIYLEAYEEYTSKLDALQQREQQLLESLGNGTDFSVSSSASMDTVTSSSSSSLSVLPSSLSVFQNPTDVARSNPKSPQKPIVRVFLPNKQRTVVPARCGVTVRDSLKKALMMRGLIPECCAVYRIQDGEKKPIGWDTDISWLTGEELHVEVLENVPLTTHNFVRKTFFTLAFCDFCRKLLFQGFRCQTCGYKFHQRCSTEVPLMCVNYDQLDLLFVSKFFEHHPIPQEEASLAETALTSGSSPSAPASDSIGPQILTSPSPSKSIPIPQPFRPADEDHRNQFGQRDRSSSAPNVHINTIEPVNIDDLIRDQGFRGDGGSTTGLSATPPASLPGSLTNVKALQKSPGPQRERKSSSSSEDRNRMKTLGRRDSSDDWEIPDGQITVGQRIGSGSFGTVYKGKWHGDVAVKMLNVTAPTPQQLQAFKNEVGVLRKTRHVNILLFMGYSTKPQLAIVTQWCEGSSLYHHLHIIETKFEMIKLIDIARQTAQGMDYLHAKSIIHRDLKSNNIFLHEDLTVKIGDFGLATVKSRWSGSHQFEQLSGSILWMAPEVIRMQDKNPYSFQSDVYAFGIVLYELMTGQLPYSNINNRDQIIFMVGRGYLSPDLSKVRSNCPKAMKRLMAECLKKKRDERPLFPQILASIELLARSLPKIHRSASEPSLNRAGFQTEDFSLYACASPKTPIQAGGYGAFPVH

Row | Compound | IC50 | inhibition at 10 µM | IC50 [1] | % Inhib./10 uM (single point assay, 10 uM)
1 | Cc1ccc(C(=O)Nc2cccc(-c3ccnc4c(-c5ccc(N)cc5)cnn34)c2)cc1C(F)(F)F [Example 180, N-{3-[3-(4-aminophenyl)pyrazolo[1,5-a]pyrimidin-7-yl]phenyl}-4-methyl-3-(trifluoromethyl)benzamide] | 180 nM | 95% | – | –
2 | Cc1ccc(C(=O)Nc2cccc(-c3ccnc4c(-c5cccc(O)c5)cnn34)c2)cc1C(F)(F)F [Example 181, N-{3-[3-(3-hydroxyphenyl)pyrazolo[1,5-a]pyrimidin-7-yl]phenyl}-4-methyl-3-(trifluoromethyl)benzamide] | 290 nM | 87% | – | –
3 | Cc1ccc(C(=O)Nc2cccc(-c3ccnc4c(-c5cccc(C#N)c5)cnn34)c2)cc1C(F)(F)F [Example 182, N-{3-[3-(3-cyanophenyl)pyrazolo[1,5-a]pyrimidin-7-yl]phenyl}-4-methyl-3-(trifluoromethyl)benzamide] | – | 29% | > 10000 nM | –
4 | Cc1ccc(C(=O)Nc2cccc(-c3ccnc4c(-c5cccc(C(=O)N(C)C)c5)cnn34)c2)cc1C(F)(F)F [Example 183, N-[3-(3-{3-[(dimethylamino)carbonyl]phenyl}pyrazolo[1,5-a]pyrimidin-7-yl)phenyl]-4-methyl-3-(trifluoromethyl)benzamide] | 270 nM | 84% | – | –
5 | CC(=O)Nc1ccc(-c2cnn3c(-c4cccc(NC(=O)c5ccc(C)c(C(F)(F)F)c5)c4)ccnc23)cc1 [Example 184, N-(3-{3-[4-(acetylamino)phenyl]pyrazolo[1,5-a]pyrimidin-7-yl}phenyl)-4-methyl-3-(trifluoromethyl)benzamide] | 200 nM | 89% | – | –
6 | Cc1ccc(C(=O)Nc2cccc(-c3ccnc4c(-c5ccncc5)cnn34)c2)cc1C(F)(F)F [Example 188, 4-methyl-N-[3-(3-pyridin-4-ylpyrazolo[1,5-a]pyrimidin-7-yl)phenyl]-3-(trifluoromethyl)benzamide] | 300 nM | 86% | – | –
7 | COc1ccc(C(=O)Nc2cccc(-c3ccnc4c(-c5ccncc5)cnn34)c2)cc1C(F)(F)F [Example 189, 4-methoxy-N-[3-(3-pyridin-4-ylpyrazolo[1,5-a]pyrimidin-7-yl)phenyl]-3-(trifluoromethyl)benzamide] | 360 nM | 83% | – | –
8 | O=C(Nc1cccc(-c2ccnc3c(-c4ccncc4)cnn23)c1)c1ccc(F)c(C(F)(F)F)c1 [Example 190, 4-fluoro-N-[3-(3-pyridin-4-ylpyrazolo[1,5-a]pyrimidin-7-yl)phenyl]-3-(trifluoromethyl)benzamide] | – | 68% | 940 nM | –
9 | O=C(Nc1cccc(-c2ccnc3c(-c4ccncc4)cnn23)c1)c1ccc(Cl)c(C(F)(F)F)c1 [Example 191, 4-chloro-N-[3-(3-pyridin-4-ylpyrazolo[1,5-a]pyrimidin-7-yl)phenyl]-3-(trifluoromethyl)benzamide] | – | 60% | 1920 nM | –
10 | O=C(Nc1cccc(-c2ccnc3c(-c4ccncc4)cnn23)c1)Nc1ccc(F)c(C(F)(F)F)c1 [Example 193, N-[4-fluoro-3-(trifluoromethyl)phenyl]-N′-[3-(3-pyridin-4-ylpyrazolo[1,5-a]pyrimidin-7-yl)phenyl]urea] | – | 79% | 500 nM | –
11 | CN(C)CC#Cc1cnn2c(-c3cccc(NC(=O)c4cccc(C(F)(F)F)c4)c3)ccnc12 [Example 205, N-(3-{3-[3-(dimethylamino)prop-1-yn-1-yl]pyrazolo[1,5-a]pyrimidin-7-yl}phenyl)-3-(trifluoromethyl)benzamide] | – | 81% | 1730 nM | –
12 | O=C(Nc1cccc(-c2ccnc3cc(N4CCNCC4)nn23)c1)c1cccc(C(F)(F)F)c1 [Example 208, N-[3-(2-piperazin-1-ylpyrazolo[1,5-a]pyrimidin-7-yl)phenyl]-3-(trifluoromethyl)benzamide] | 6150 nM | – | – | 54%

Now from value to compound, other results behind:

Row | IC50 | inhibition at 10 µM | IC50 [1] | Compound | % Inhib./10 uM (single point assay, 10 uM)
13 | – | 6% | > 10000 nM | CCOC(=O)c1cc2nccc(-c3cccc(NC(=O)c4cccc(C(F)(F)F)c4)c3)n2n1 [Example 185, ethyl 7-(3-{[3-(trifluoromethyl)benzoyl]amino}phenyl)pyrazolo[1,5-a]pyrimidine-2-carboxylate] | –
14 | – | 31% | > 10000 nM | CN(C)c1cc2nccc(-c3cccc(NC(=O)c4cccc(C(F)(F)F)c4)c3)n2n1 [Example 187, N-{3-[2-(dimethylamino)pyrazolo[1,5-a]pyrimidin-7-yl]phenyl}-3-(trifluoromethyl)benzamide] | –
15 | – | 72% | 1300 nM | O=C(Nc1cccc(-c2ccnc3c(-c4ccncc4)cnn23)c1)Nc1cccc(C(F)(F)F)c1 [Example 192, N-[3-(3-pyridin-4-ylpyrazolo[1,5-a]pyrimidin-7-yl)phenyl]-N′-[3-(trifluoromethyl)phenyl]urea] | –
16 | – | 96% | 110 nM | Cc1ccc(C(=O)Nc2cccc(-c3ccnc4cc(N5CCOCC5)nn34)c2)cc1C(F)(F)F [Example 194, 4-methyl-N-[3-(2-morpholin-4-ylpyrazolo[1,5-a]pyrimidin-7-yl)phenyl]-3-(trifluoromethyl)benzamide] | –
17 | – | 93% | 220 nM | COc1ccc(C(=O)Nc2cccc(-c3ccnc4cc(N5CCOCC5)nn34)c2)cc1C(F)(F)F [Example 195, 4-methoxy-N-[3-(2-morpholin-4-ylpyrazolo[1,5-a]pyrimidin-7-yl)phenyl]-3-(trifluoromethyl)benzamide] | –
18 | – | 96% | 90 nM | O=C(Nc1cccc(-c2ccnc3cc(N4CCOCC4)nn23)c1)c1ccc(F)c(C(F)(F)F)c1 [Example 196, 4-fluoro-N-[3-(2-morpholin-4-ylpyrazolo[1,5-a]pyrimidin-7-yl)phenyl]-3-(trifluoromethyl)benzamide] | –
19 | – | 91% | 200 nM | O=C(Nc1cccc(-c2ccnc3cc(N4CCOCC4)nn23)c1)c1ccc(Cl)c(C(F)(F)F)c1 [Example 197, 4-chloro-N-[3-(2-morpholin-4-ylpyrazolo[1,5-a]pyrimidin-7-yl)phenyl]-3-(trifluoromethyl)benzamide] | –
20 | – | 56% | 1900 nM | O=C(Nc1cccc(-c2ccnc3cc(N4CCOCC4)nn23)c1)c1ccc(Cl)c(Cl)c1 [Example 198, 3,4-dichloro-N-[3-(2-morpholin-4-ylpyrazolo[1,5-a]pyrimidin-7-yl)phenyl]benzamide] | –
21 | – | 96% | 120 nM | O=C(Nc1cccc(-c2ccnc3cc(N4CCOCC4)nn23)c1)Nc1cccc(C(F)(F)F)c1 [Example 199, N-[3-(2-morpholin-4-ylpyrazolo[1,5-a]pyrimidin-7-yl)phenyl]-N′-[3-(trifluoromethyl)phenyl]urea] | –
22 | – | 94% | 200 nM | O=C(Nc1cccc(-c2ccnc3cc(N4CCOCC4)nn23)c1)Nc1ccc(Cl)c(C(F)(F)F)c1 [Example 200, N-[4-chloro-3-(trifluoromethyl)phenyl]-N′-[3-(2-morpholin-4-ylpyrazolo[1,5-a]pyrimidin-7-yl)phenyl]urea] | –
23 | – | 96% | 100 nM | O=C(Nc1cccc(-c2ccnc3cc(N4CCOCC4)nn23)c1)Nc1ccc(Cl)c(Cl)c1 [Example 201, N-(3,4-dichlorophenyl)-N′-[3-(2-morpholin-4-ylpyrazolo[1,5-a]pyrimidin-7-yl)phenyl]urea] | –
24 | – | 96% | 120 nM | O=C(Nc1cccc(-c2ccnc3cc(N4CCOCC4)nn23)c1)Nc1ccc(F)c(C(F)(F)F)c1 [Example 202, N-[4-fluoro-3-(trifluoromethyl)phenyl]-N′-[3-(2-morpholin-4-ylpyrazolo[1,5-a]pyrimidin-7-yl)phenyl]urea] | –
25 | > 10000 nM | 16% | – | CN1CCN(c2cc3nccc(-c4cccc(NC(=O)c5cccc(C(F)(F)F)c5)c4)n3n2)CC1 [Example 203, N-{3-[2-(4-methylpiperazin-1-yl)pyrazolo[1,5-a]pyrimidin-7-yl]phenyl}-3-(trifluoromethyl)benzamide] | –
26 | – | 18% | > 10000 nM | CC(C)(C)OC(=O)N1CCN(c2cc3nccc(-c4cccc(NC(=O)c5cccc(C(F)(F)F)c5)c4)n3n2)CC1 [Example 206, tert-butyl 4-[7-(3-{[3-(trifluoromethyl)benzoyl]amino}phenyl)pyrazolo[1,5-a]pyrimidin-2-yl]piperazine-1-carboxylate] | –
27 | – | 0% | > 10000 nM | O=C(Nc1cccc(-c2ccnc3cc(N4CCN(Cc5ccccc5)CC4)nn23)c1)c1cccc(C(F)(F)F)c1 [Example 207, N-{3-[2-(4-benzylpiperazin-1-yl)pyrazolo[1,5-a]pyrimidin-7-yl]phenyl}-3-(trifluoromethyl)benzamide] | –
28 | – | 24% | > 10000 nM | CN(C)C1CCN(c2cc3nccc(-c4cccc(NC(=O)c5cccc(C(F)(F)F)c5)c4)n3n2)C1 (stereo not drawn) [Example 209, N-(3-{2-[3-(dimethylamino)pyrrolidin-1-yl]pyrazolo[1,5-a]pyrimidin-7-yl}phenyl)-3-(trifluoromethyl)benzamide] | –
29 | – | 52% | 2500 nM | COC[C@H]1CCCN1c1cc2nccc(-c3cccc(NC(=O)c4cccc(C(F)(F)F)c4)c3)n2n1 [Example 210, N-(3-{2-[(2R)-2-(methoxymethyl)pyrrolidin-1-yl]pyrazolo[1,5-a]pyrimidin-7-yl}phenyl)-3-(trifluoromethyl)benzamide] | –
30 | – | 47% | > 10000 nM | O=C(Nc1cccc(-c2ccnc3cc(N4CCC[C@H]4CN4CCCC4)nn23)c1)c1cccc(C(F)(F)F)c1 [Example 211, N-(3-{2-[(2S)-2-(pyrrolidin-1-ylmethyl)pyrrolidin-1-yl]pyrazolo[1,5-a]pyrimidin-7-yl}phenyl)-3-(trifluoromethyl)benzamide] | –
